Activity calls are given as the source filed them.
Legend:
Protein skinhead-1 = target: T1, Protein skinhead-1 (Caenorhabditis elegans, UniProt P34707); type: functional
T1 sequence (P34707 whole entry): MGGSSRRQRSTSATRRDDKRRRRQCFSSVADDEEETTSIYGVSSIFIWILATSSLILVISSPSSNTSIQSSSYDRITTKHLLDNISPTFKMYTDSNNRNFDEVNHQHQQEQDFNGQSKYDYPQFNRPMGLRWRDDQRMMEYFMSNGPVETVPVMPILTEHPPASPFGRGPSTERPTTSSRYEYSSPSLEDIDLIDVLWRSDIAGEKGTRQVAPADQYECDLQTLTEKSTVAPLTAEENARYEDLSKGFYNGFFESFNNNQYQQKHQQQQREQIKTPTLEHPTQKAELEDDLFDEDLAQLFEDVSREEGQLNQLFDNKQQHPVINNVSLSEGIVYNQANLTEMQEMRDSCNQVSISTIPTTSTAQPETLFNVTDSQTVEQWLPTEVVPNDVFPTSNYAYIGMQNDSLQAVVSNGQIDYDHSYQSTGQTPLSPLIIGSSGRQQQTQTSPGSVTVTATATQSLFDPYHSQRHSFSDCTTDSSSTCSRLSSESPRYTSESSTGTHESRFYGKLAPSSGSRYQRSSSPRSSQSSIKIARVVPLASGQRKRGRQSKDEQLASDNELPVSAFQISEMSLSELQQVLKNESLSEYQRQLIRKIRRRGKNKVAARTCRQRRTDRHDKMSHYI

Paired box protein Pax-8 = Paired box protein Pax-8 (Homo sapiens, UniProt Q06710); experiment: PAX8 transcriptional activity inhibition in RMG-I – RMG-I cells, luciferase, cherry-pick, dose response (AID 687027); type: functional, cell-based;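 further: luciferase reporter driven by Pax8 target thyroperoxidase promoter measured by SteadyGlo luminescence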
[1] = target: FAD-linked sulfhydryl oxidase ALR (Homo sapiens, UniProt P55789); experiment: ALR-catalysed DTT oxidation blockers – biochemical, H2O2 detection, luminescence, cherry-pick, dose response (AID 493248)
[2] = P. falciparum Dd2 growth inhibitors, dose response, SYBR Green, cherry-picked samples (AID 1159567); type: functional, cell-based
Cytochrome P450 2C19 = Cytochrome P450 2C19 (Homo sapiens, UniProt P33261); experiment: Cytochrome panel assay with activity outcomes. Panel member name: p450-cyp2c19 Compounds with AC50 equal or less than 10 uM are considered active; type: functional; conditions: read-out: AC50
[3] = Luminescence Cell-Based Dose Response HTS to Identify Activators of Luciferase Translation or Activity in H4 […] Cells. [Related pubchem assays: 1829 (Project Summary), 1814 (Primary HTS)]; type: functional
H4 = experiment: Luminescence Cell-Based Dose Response HTS to Identify Activators of 5'UTR Stem-Loop Driven Prion Protein mRNA Translation in H4 Neuroglioblastoma Cells. [Related pubchem assays: 1829 (Project Summary), 1814 (Primary HTS)]; type: functional; conditions: Homo sapiens
[4] = viability of uninfected HEp-2 cells – cell-based, HTS, cytotoxicity control for RSV inhibitor project, dose response (AID 2410); type: functional; conditions: human respiratory syncytial virus
[5] = viability of PTEN-deleted HCT116 cells – cell-based, HCT116 PTEN knockout, dose response (AID 1047); type: functional;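 further: HCT116 colon tumor cells with PTEN knocked out; cells exposed to compound for 60 hours before readout; potency for loss of cell viability measured by luminescence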
[6] = viability of HCT116 lacking mutant beta-catenin – cell-based, human colon tumor, dose response (AID 1045); type: functional;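 further: HCT116 colon tumor cells with beta catenin knocked out; cells exposed to compound for 60 hours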
[7] = Luminescence Cell-Based Dose Retest to Confirm Inhibitors of Cancer Stem Cells. [Related pubchem assays (depositor defined):AID2717, AID2721]; type: functional; conditions: Homo sapiens
INS1 = experiment: INS-1E survival protection against cytokine death – cell-based, luminescence, retest, dose response (AID 449756); type: functional; conditions: Rattus norvegicus;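 further: cell death triggered by IL-1 beta plus TNF-alpha plus IFN-gamma mixture; protective hits raise ATP signal compared with cytokine alone wells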
cells [8] = type: functional, cell-based
cells [9] = type: functional, cell-based; remark: listed apart in the source

Chain of FAD-linked sulfhydryl oxidase ALR (P55789 whole entry): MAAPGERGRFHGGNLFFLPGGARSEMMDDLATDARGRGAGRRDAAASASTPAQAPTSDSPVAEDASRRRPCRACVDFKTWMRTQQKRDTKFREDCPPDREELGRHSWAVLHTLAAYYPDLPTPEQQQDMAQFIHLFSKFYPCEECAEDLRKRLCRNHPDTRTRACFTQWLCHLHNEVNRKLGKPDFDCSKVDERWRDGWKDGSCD
Chain of Paired box protein Pax-8 (Q06710 whole entry): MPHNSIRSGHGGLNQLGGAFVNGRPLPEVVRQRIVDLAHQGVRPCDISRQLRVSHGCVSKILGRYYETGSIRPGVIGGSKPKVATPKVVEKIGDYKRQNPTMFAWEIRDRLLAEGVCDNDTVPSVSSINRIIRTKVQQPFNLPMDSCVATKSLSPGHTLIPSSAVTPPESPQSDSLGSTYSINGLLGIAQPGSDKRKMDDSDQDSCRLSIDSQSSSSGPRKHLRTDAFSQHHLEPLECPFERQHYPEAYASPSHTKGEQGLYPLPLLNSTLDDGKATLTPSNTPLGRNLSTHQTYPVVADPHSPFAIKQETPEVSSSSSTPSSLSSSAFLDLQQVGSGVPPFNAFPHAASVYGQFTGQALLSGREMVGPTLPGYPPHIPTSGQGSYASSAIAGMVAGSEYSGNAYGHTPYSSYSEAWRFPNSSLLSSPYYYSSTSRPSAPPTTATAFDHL
Chain of Cytochrome P450 2C19 (P33261 whole entry): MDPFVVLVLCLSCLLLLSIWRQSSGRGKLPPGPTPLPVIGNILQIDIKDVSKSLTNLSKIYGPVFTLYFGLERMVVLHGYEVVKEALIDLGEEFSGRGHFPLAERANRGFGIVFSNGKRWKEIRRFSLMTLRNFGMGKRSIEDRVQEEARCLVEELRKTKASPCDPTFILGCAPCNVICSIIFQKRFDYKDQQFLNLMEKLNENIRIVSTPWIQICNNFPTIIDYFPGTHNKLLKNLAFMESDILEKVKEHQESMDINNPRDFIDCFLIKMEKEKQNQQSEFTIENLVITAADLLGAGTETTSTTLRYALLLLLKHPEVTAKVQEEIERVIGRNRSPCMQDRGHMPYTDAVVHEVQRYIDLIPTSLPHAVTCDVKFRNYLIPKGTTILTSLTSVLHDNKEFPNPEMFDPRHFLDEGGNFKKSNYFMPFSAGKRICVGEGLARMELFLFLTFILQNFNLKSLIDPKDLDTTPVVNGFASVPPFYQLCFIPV

Q: For `O=[N+]([O-])c1ccc(COc2ccc(CN3CCCCC3)cc2)cc1`, which IC50 (Protein skinhead-1) is on record?
A: 3.46 µM (active)

Q: Which AC50 (Paired box protein Pax-8) does the source give for `C[C@@H]1CN([C@@H](C)CO)S(=O)(=O)c2ccc(C#Cc3ccc(F)cc3)cc2O[C@@H]1CN(C)C(=O)NC1CCCCC1` here?
A: 8.43 µM (active)

Q: For `N#Cc1ccc(CN2CCN(C(=O)c3cc(C4CC4)nn3-c3ccccc3)CC2)cc1`, which IC50 (Protein skinhead-1) is on record?
A: 37.5 µM (active)

Q: For `Nc1ccccc1C#Cc1ccc2[nH]ccc2c1`, which AC50 [1] is on record?
A: 14.9 µM (active)

Q: For `N#C[C@@H]1[C@H](c2ccccc2/C=C/c2ccccc2)[C@H](CO)N1S(=O)(=O)c1ccc(F)cc1`, which AC50 [2] is on record?
A: 6.19 µM (active)

Q: With `COC(=O)c1ccc2nc(-c3ccc(C)cc3)c(Cc3cccc(F)c3)n2c1` as the molecule, how does the IC50 (Protein skinhead-1) read?
A: > 100 µM (inactive)

Q: With `CCCCN1C[C@H](c2ccc(Br)cc2)[C@@H](CC(=O)Nc2ccc(Br)cc2)C1=O` as the molecule, how does the IC50 (Protein skinhead-1) read?
A: > 100 µM (inactive)

Q: For `CC(=O)Nc1ccc(NC(=O)CC2Nc3cccc4cccc(c34)NC2=O)cc1` (stereo unspecified), which AC50 (Cytochrome P450 2C19) is on record?
A: 39.8 µM (inconclusive)

Q: What about the AC50 [1] of the same molecule?
A: 7.99 µM (active)

Q: With `Cc1c(C(=O)/C=C/c2cccs2)oc2ccc(F)cc12` as the molecule, how does the IC50 (Protein skinhead-1) read?
A: > 100 µM (inactive)

Q: And the EC50 [3]?
A: 0.139 µM (active)

Q: And the EC50 (H4)?
A: 34.1 µM (inconclusive)

Q: For `C#CCN1C(=O)S/C(=C/C=C/c2ccc(N(C)C)cc2)C1=O`, which IC50 (Protein skinhead-1) is on record?
A: > 100 µM (inactive)

Q: For `CCCC(=O)N1CC2(C1)CN(Cc1ccc(Cl)cc1)[C@H](CO)c1[nH]c3cc(OC)ccc3c12`, which AC50 [2] is on record?
A: 6.65 µM (active)

Q: For `Cc1c(/C=N\NC(=O)c2ccc(F)cc2)cnn1C`, which AC50 [1] is on record?
A: 4.3 µM (active)

Q: What does the source list for `CCCCCn1cnc2sc(-c3ccccc3)cc2c1=O`?
A: IC50 (Protein skinhead-1): > 100 µM (inactive); EC50 [3]: 2.43 µM (active); EC50 (H4): 6.94 µM (active); CC50 [4]: > 50 µM (active)

Q: With `COc1cccc(CN2[C@@H]3CNC[C@H]2[C@H]3c2ccc(-c3ccccc3OC)cc2)c1` as the molecule, how does the AC50 [2] read?
A: 5.81 µM (active)

Q: For `CC(=O)Nc1ccc2c(c1Br)Cc1ccccc1-2`, which IC50 (Protein skinhead-1) is on record?
A: > 100 µM (inactive)

Q: Which IC50 (Protein skinhead-1) does the source give for `CC(=O)c1ccc(-n2nncc2-c2ccc([N+](=O)[O-])cc2)cc1` here?
A: > 100 µM (inactive)

Q: Which AC50 (Paired box protein Pax-8) does the source give for `C[C@@H]1CN([C@H](C)CO)C(=O)c2cc(NS(=O)(=O)c3ccc(F)cc3)ccc2O[C@@H](C)CCCCO[C@H]1CN(C)Cc1ccccc1` here?
A: 17.2 µM (active)

Q: With `O=C(c1ccccn1)N1CC(=O)N2[C@H](CO)[C@@H](c3ccc(C#CCc4ccccc4)cc3)[C@@H]2C1` as the molecule, how does the AC50 [2] read?
A: 6.31 µM (active)

Q: Which IC50 (Protein skinhead-1) does the source give for `O=C(/C=C/c1ccco1)Nc1nc(-c2ccccc2)cs1` here?
A: 68.6 µM (inactive)

Q: For `CC(C)Oc1cccc(C(=O)Nc2ccc(CN3CCOCC3)cc2)c1`, which IC50 (Protein skinhead-1) is on record?
A: 31.1 µM (active)

Q: Which results are given for `O=C(NC(c1ccc(Cl)cc1)c1c(O)ccc2ccccc12)c1ccccc1` (stereo unspecified)?
A: EC50 [5]: 7.75 µM (active); EC50 [6]: 8.69 µM (active); AC50 [7]: 1.23 µM (active)

Q: With `COc1ccc(N2CCN(C(CNC(=O)C(C)C)c3ccc4c(c3)OCO4)CC2)cc1` (stereo unspecified) as the molecule, how does the AC50 [1] read?
A: 4.01 µM (active)

Q: Which AC50 [1] does the source give for `Cc1ccc2nc(C)cc(N/N=C/c3cccnc3)c2c1` here?
A: 6.08 µM (active)

Q: Which AC50 [1] does the source give for `CC(/C=N/n1c(S)nnc1-c1ccccn1)=C\c1ccccc1` here?
A: 5.86 µM (active)

Q: Which AC50 (Paired box protein Pax-8) does the source give for `COc1cccc(S(=O)(=O)N2CC[C@@H]3[C@H](CO)Nc4ccc(C5=CCCCC5)cc4[C@@H]32)c1` here?
A: 10 µM (active)

Q: Which results are given for `O=C(Nc1ccccc1NC(=O)NC1CCCCC1)NC1CCCCC1`?
A: EC50 [5]: 15.1 µM (active); EC50 [6]: 17.8 µM (active)

Q: For `CCCCCc1cc(=O)oc2c(C(CCN3CCCCC3)c3ccc4c(c3)OCO4)c(OC)cc(OC)c12` (stereo unspecified), which AC50 (Paired box protein Pax-8) is on record?
A: 13.4 µM (active)

Q: What about the AC50 (INS1) of the same molecule?
A: 8 µM (active)

Q: What about the AC50 [7] of the same molecule?
A: 6.41 µM (active)

Q: Which AC50 [1] does the source give for `CC1(c2ccc(O)cc2)NC(=O)N(c2ccccc2)N1` (stereo unspecified) here?
A: 0.015 µM (active)

Q: And the AC50 [7]?
A: 4.14 µM (active)

Q: Which AC50 [1] does the source give for `CC(=O)c1ccc(S(=O)(=O)Nc2cccc(S(=O)(=O)NC3=NCCC3)c2)cc1` here?
A: > 100 µM (inactive)

Q: For `CCN1CCN(CC(=O)Nc2sc3c(c2C#N)CCC(C)C3)CC1` (stereo unspecified), which EC50 [5] is on record?
A: 15.8 µM (active)

Q: What about the EC50 [6] of the same molecule?
A: 17.9 µM (active)

Q: For `FC(F)(F)c1ccc(-c2n[nH]c(S)n2)cc1`, which AC50 [1] is on record?
A: 0.248 µM (active)

Q: And the EC50 (cells [8])?
A: > 350 µM (not active)

Q: And the EC50 (cells [9])?
A: > 350 µM (not active)
